For series [1], the system named is Pseudomonas aeruginosa. In words: Antibacterial activity against Pseudomonas aeruginosa ATCC 27853 by broth dilution method. Format: functional.
For series [2], the system named is Bacillus spizizenii. In words: Antibacterial activity against Bacillus subtilis ATCC 6633 by broth dilution method. The series is classed as functional. In general terms: Dilution methods test growth across graded concentrations, often in twofold steps.
Series [3] in a line: Cytotoxicity against human HepG2 cells assessed as decrease in cell viability after 72 hrs by MTS assay. Format: functional, cell-based. The settings on record: HepG2, 72 h. (Tetrazolium dyes change colour on reduction, which living cells bring about.)
The nature of series [4]: Cytotoxicity against human MCF7 cells assessed as decrease in cell viability after 72 hrs by MTS assay. Format: functional, cell-based. The settings on record: MCF7, 72 h.
In series [5] the test system is Salmonella enteritidis. Kind of series: Antibacterial activity against Salmonella enteritidis ATCC 13076 by broth dilution method. Format: functional, Salmonella enterica subsp. enterica serovar Enteritidis. The settings on record: Salmonella enterica.
Series [6] in a line: Cytotoxicity against HEK293T cells assessed as decrease in cell viability after 72 hrs by MTS assay. The series is classed as toxicity, cell-based, HEK-293T. The note with it: human.
For series [7], the system named is Escherichia coli. In words: Antibacterial activity against Escherichia coli ATCC 25922 by broth dilution method. Format: functional.
Series [8] in a line: Cytotoxicity against human A549 cells assessed as decrease in cell viability after 72 hrs by MTS assay. The settings on record: A549, 72 h. The series is classed as functional, cell-based.
Series [9] can be described thus: Cytotoxicity against human HeLa cells assessed as decrease in cell viability after 72 hrs by MTS assay. The series is classed as functional, cell-based.
In series [10] the test system is Staphylococcus aureus. In words: Antibacterial activity against Staphylococcus aureus ATCC 12598 by broth dilution method. Format: functional.

The values that follow come from ChEMBL document CHEMBL3867449, “Cytotoxic and Antibacterial Preussomerins from the Mangrove Endophytic Fungus Lasiodiplodia theobromae ZJ-HQ1” (J Nat Prod, 2016).

≈ marks a conversion by molar mass, not a printed value.

In general, MIC refers to the smallest concentration in the dilution series that meets the test's criterion for growth inhibition. Higher therefore signals a less susceptible organism. As usually defined, the IC50 is the concentration needed to halve the response being measured. As to `CO[C@@H]1[C@H](Cl)C(=O)c2c(O)ccc3c2[C@@]12Oc1cccc4c1[C@](O3)(O2)[C@H](OC)CC4=O`, the minimum inhibitory concentration (MIC) in series [1] was more than 50 µg/mL; in series [2] it was 25 µg/mL (≈ 56.2 µM); in series [5] it was more than 50 µg/mL; in [7] it was more than 50 µg/mL; in [10] it was 3.2 µg/mL (≈ 7.19 µM). In addition, the IC50 in series [3] turned out to be 7.7 µM; in series [4], 6.2 µM; in series [8], 8.9 µM; in series [9], 27 µM. Moreover, the IC50 at 72 h in series [6] amounted to 11 µM.
For `O=C1C[C@@H](O)[C@]23Oc4ccc(O)c5c4[C@](Oc4cccc1c42)(O3)[C@@H]1O[C@@H]1C5=O`, the minimum inhibitory concentration (MIC) in [1] was more than 50 µg/mL; in series [2], 25 µg/mL (≈ 65.7 µM); in [5] it was more than 50 µg/mL; in series [7], more than 50 µg/mL; in series [10], 50 µg/mL (≈ 131 µM). Further, the IC50 was 3.8 µM in series [3], 2.5 µM in series [4], 5.4 µM in series [8] and 15 µM in series [9]. Also, in series [6], the IC50 at 72 h worked out at 9.4 µM.
On to `CO[C@@H]1CC(=O)c2cccc3c2[C@@]12Oc1ccc(O)c4c1[C@](O3)(O2)[C@H](O)[C@H](Cl)C4=O`, for which the MIC in series [1] is more than 50 µg/mL; in series [2], 50 µg/mL (≈ 116 µM); in [5] it was more than 50 µg/mL; in series [7] it was more than 50 µg/mL; in [10], 6.2 µg/mL (≈ 14.4 µM). Also, the IC50 in series [3] is 13 µM; in series [4], 5.9 µM; in series [8] it was 8.5 µM; in series [9], 19 µM. In addition, the IC50 at 72 h in series [6] came to 4.8 µM.
In the case of `O=C1CC[C@]23Oc4ccc(O)c5c4[C@](Oc4cccc1c42)(O3)[C@@H]1O[C@@H]1C5=O`, the MIC in series [1] is more than 50 µg/mL; in [2], 13 µg/mL (≈ 35.7 µM); in [5] it was more than 50 µg/mL; in [7], more than 50 µg/mL; in series [10], 1.6 µg/mL (≈ 4.39 µM). Moreover, the IC50 in [3] is 4.4 µM; in [4] it was 2.6 µM; in [8] it was 9.4 µM; in series [9], 19 µM. Besides, the IC50 at 72 h in [6] amounted to 12 µM.
With `O=C1c2c(O)ccc3c2[C@@]2(Oc4cccc5c4[C@](C=C[C@@H]5O)(O3)O2)[C@@H]2O[C@H]12`, the minimal inhibitory concentration (MIC) is more than 50 µg/mL in series [1]; 25 µg/mL (≈ 68.6 µM) in series [2]; more than 50 µg/mL in [5]; more than 50 µg/mL in series [7]; 13 µg/mL (≈ 35.7 µM) in [10]. In addition, the IC50 in series [3] is 3.6 µM; in series [4] it was 3.1 µM; in series [8], 7.7 µM; in [9], 18 µM. Besides, the IC50 at 72 h in series [6] worked out at 6.9 µM.
Consider `Oc1ccc2c3c1[C@@H](O)[C@H]1O[C@H]1[C@]31Oc3cccc4c3[C@](C=C[C@@H]4O)(O2)O1`, for which the MIC is more than 50 µg/mL in [1]; 13 µg/mL (≈ 35.5 µM) in series [2]; more than 50 µg/mL in series [5]; more than 50 µg/mL in [7]; 6.2 µg/mL (≈ 16.9 µM) in series [10]. The half-inhibitory concentration (IC50) was more than 100 µM in series [3], 71 µM in series [4], 40.2 µM in [8] and more than 100 µM in series [9]. The IC50 at 72 h in series [6] was more than 100 µM.
As to `O=C1C=C[C@]23Oc4ccc(O)c5c4[C@](Oc4cccc1c42)(O3)[C@@H]1O[C@@H]1C5=O`, the minimum inhibitory concentration (MIC) in series [1] is more than 50 µg/mL; in series [2], 50 µg/mL (≈ 138 µM); in series [5], more than 50 µg/mL; in [7], more than 50 µg/mL; in [10] it was 13 µg/mL (≈ 35.9 µM). The IC50 in series [3] worked out at 8.5 µM; in series [4], 4.2 µM; in series [8], 6.2 µM; in series [9] it was 14 µM. Moreover, the half-maximal inhibitory concentration (IC50) at 72 h in series [6] turned out to be 17 µM.
With `CO[C@@H]1CC(=O)c2cccc3c2[C@@]12Oc1ccc(O)c4c1[C@](O3)(O2)[C@H](O)CC4=O`, the IC50 in [3] is 83 µM; in series [4] it was 13 µM; in series [8], 36.1 µM; in series [9], more than 100 µM. The IC50 at 72 h in series [6] came to 83 µM.
As to `O=C1CC[C@]23Oc4ccc(O)c5c4[C@](Oc4cccc1c42)(O3)[C@@H]1O[C@@H]1[C@@H]5O`, the IC50 in series [3] was more than 100 µM; in series [4], more than 100 µM; in [8], 76.2 µM; in series [9] it was more than 100 µM. Further, the IC50 at 72 h in series [6] was determined as 86 µM.
On to `O=C(O)c1cn(C2CC2)c2cc(N3CCNCC3)c(F)cc2c1=O` [CIPROFLOXACIN], for which the minimal inhibitory concentration (MIC) came out at 0.5 µg/mL (≈ 1.51 µM) in series [2], 0.25 µg/mL (≈ 0.754 µM) in [5] and 0.25 µg/mL (≈ 0.754 µM) in series [10].
In the case of `COc1cccc2c1C(=O)c1c(O)c3c(c(O)c1C2=O)C[C@@](O)(C(=O)CO)C[C@@H]3O[C@H]1C[C@H](N)[C@@H](O)[C@H](C)O1` [EPIRUBICIN], the IC50 in [4] amounted to 0.71 µM; in [8] it was 0.63 µM; in series [9] it was 0.42 µM.
Turning to `CO[C@@H]1CC(=O)c2cccc3c2[C@@]12Oc1ccc(O)c4c1[C@](O3)(O2)[C@@H]1O[C@@H]1[C@@H]4O` [PREUSSOMERIN C], the MIC in series [1], in series [2], in series [5], in [7] and in [10] was more than 50 µg/mL throughout. Besides, the IC50 in [3], in [4], in [8] and in series [9] was more than 100 µM in each case. Also, in series [6], the IC50 at 72 h was more than 100 µM.
With `O=C1C=C[C@]23Oc4ccc(O)c5c4[C@](Oc4cccc1c42)(O3)[C@@H]1O[C@@H]1[C@@H]5O` [PREUSSOMERIN D], the IC50 amounted to 38 µM in [3], 9.8 µM in [4], 6.6 µM in series [8] and 21 µM in series [9]. Besides, the IC50 at 72 h in series [6] is 24 µM.
